Assay results reported in the OPERA property sets (Mansouri et al. 2018).

Settings: for log10 BCF / log10 biotransformation half-life (days): fish

Row | SMILES | boiling point [°C] | melting point [°C] | also measured
1 | C1CNCCN1 | 146 |  | log10 vapour pressure (mmHg): -0.796; ready biodegradability: not readily biodegradable; log10 BCF: 0.59
2 | CC1CO1 (centres undefined) | 35 | -112 | log10 vapour pressure (mmHg): 2.73; ready biodegradability: readily biodegradable
3 | COc1cc(O)cc(OC)c1 |  | 37 | 
4 | OC1c2ccccc2Oc2ccccc21 |  | 128 | 
5 | Cc1ncc([N+](=O)[O-])n1CC(O)CCl (centres undefined) |  | 77.5 | 
6 | O=C(O)c1nc[nH]c1C(=O)O |  | 288 | 
7 | O=C1c2ccccc2C(=O)c2ccccc21 | 377 | 286 | log10 Koc (L/kg): 3.57; log10 vapour pressure (mmHg): -6.94; ready biodegradability: readily biodegradable
8 | O=S(=O)([O-])CCN1CC[NH+](CCO)CC1 |  | 234 | 
9 | O=Cc1ccc(O)cc1 | 310 | 117 | log10 Henry constant (atm·m³/mol): -9.29; log10 vapour pressure (mmHg): -3.95; ready biodegradability: readily biodegradable
10 | C=CCCC=C | 59.4 | -141 | log10 vapour pressure (mmHg): 2.34
11 | CC(C)C(=O)OC(=O)C(C)C | 183 | -53.5 | 
12 | COCC1CCCO1 (centres undefined) | 140 |  | 
13 | O=C1NCc2ccccc21 | 338 | 151 | 
14 | Cc1ccc(NO)cc1 |  | 96 | 
15 | CC(=O)Oc1ccccc1 | 196 | -30 | log10 vapour pressure (mmHg): -0.4
16 | O=C(Cl)C(F)(F)F | -27 | 146 | log10 Henry constant (atm·m³/mol): -3.35
17 | CC1(C)OC(=O)CC1CC(=O)O (centres undefined) |  | 90 | 
18 | CCCN(CCC)c1c([N+](=O)[O-])cc(C(F)(F)F)c(N)c1[N+](=O)[O-] |  | 124 | log10 Koc (L/kg): 4.11; log10 vapour pressure (mmHg): -7.61
19 | O=C=NCCCCCCN=C=O | 255 | -67 | 
20 | CN1C(=O)OC(C)(C)C1=O |  | 46 | 
21 | CCOC(=O)C(CC)(CC)C(=O)OCC | 230 |  | 
22 | Clc1ccc(Cl)c(-c2ccc(Cl)c(Cl)c2)c1 |  | 106 | log10 Henry constant (atm·m³/mol): -4; log10 Koc (L/kg): 4.86; log10 vapour pressure (mmHg): -4.39; log10 BCF: 5.08; log10 biotransformation half-life (days): 2.65

Row | SMILES | boiling point [°C] | melting point [°C] | also measured
23 | CCCOCOCCC | 140 | -97.3 | 
24 | CCCCCCCCCC[N+](C)(C)Cc1ccccc1 |  |  | ready biodegradability: not readily biodegradable
25 | O=C1C(CCS(=O)c2ccccc2)C(=O)N(c2ccccc2)N1c1ccccc1 (centres undefined) |  | 136 | 
26 | c1cc2ccc3ccc4ccc5ccc6ccc1c1c2c3c4c5c61 | 525 | 437 | log10 biodegradation half-life (days): 2.87; log10 vapour pressure (mmHg): -11.7
27 | CCCC[N+](=O)[O-] | 153 | -81.3 | log10 vapour pressure (mmHg): 0.579
28 | Ic1cc(I)c(I)c(I)c1 |  | 148 | 
29 | FCC1CO1 (centres undefined) | 85.5 |  | 
30 | O=C(O)C1(O)c2ccccc2-c2ccc(Cl)cc21 (centres undefined) |  | 152 | 
31 | CCCCCCCCC(=O)OCCCCCCC |  | -15.5 | 
32 | O=C(O)C1CCCCC1C(=O)O (centres undefined) |  |  | log10 BCF: 0.3
33 | Cc1c(C)c(C)c(C(=O)O)c(C)c1C |  | 210 | 
34 | CC(C)=CC=O | 134 |  | 
35 | Cc1ccc(O)cc1N |  | 158 | 
36 | CCCCCCCCCCCCCCCC(=O)N(CCO)CCO |  |  | ready biodegradability: readily biodegradable
37 | ClSC(Cl)(Cl)Cl | 148 |  | log10 vapour pressure (mmHg): 0.477
38 | Cc1cnc2c(ccc3c(C)c(C)cnc32)c1C |  | 278 | 
39 | Cc1cc(C(C)(C)C)c(C)cc1O | 264 | 71.2 | 
40 | NNC(N)=S |  | 183 | ready biodegradability: not readily biodegradable
41 | COC(=O)C1(O)c2ccccc2-c2ccc(Cl)cc21 (centres undefined) |  | 139 | 
42 | C1CN2CCN1CC2 | 174 | 159 | log10 vapour pressure (mmHg): -0.13; ready biodegradability: not readily biodegradable
43 | ClCCCCBr | 175 |  | 
44 | CC(C)(C)c1cc(C(C)(C)C)c(O)c(C(C)(C)C)c1 | 278 | 131 | log10 vapour pressure (mmHg): -3.18; ready biodegradability: not readily biodegradable; log10 BCF: 4.14; log10 biotransformation half-life (days): 1.81

Row | SMILES | boiling point [°C] | melting point [°C] | also measured
45 | N#CC(C#N)=C(C#N)C#N |  | 199 | 
46 | Clc1cccc(C(Cl)(Cl)Cl)c1 | 255 | 0.6 | 
47 | CCCC=CC(=O)O | 216 | 36.5 | 
48 | OC[C@H]1O[C@@H](n2cnc3cncnc32)[C@H](O)[C@@H]1O |  | 181 | 
49 | CCC=CCCO | 156 |  | 
50 | CC(Cl)(Cl)C(=O)[O-].[Na+] |  | 166 | 
51 | c1ccc(N(c2ccccc2)c2ccccc2)cc1 | 365 | 127 | log10 Koc (L/kg): 2.26
52 | Cc1cc(C)c([N+](=O)[O-])c(C)c1[N+](=O)[O-] | 418 | 85.3 | 
53 | N#Cc1cccc(C(F)(F)F)c1 | 189 | 14.5 | 
54 | NNC(=O)c1ccc(O)cc1 |  | 265 | 
55 | O=[N+]([O-])c1ccc(S(=O)(=O)O)c([N+](=O)[O-])c1 |  | 108 | 
56 | CCCC(O)(CC)CCC | 182 |  | 
57 | CCCCCCCCCC(C)=O | 232 | 15 | log10 Henry constant (atm·m³/mol): -4.2; log10 vapour pressure (mmHg): -1.38
58 | COCCl | 59.5 | -104 | log10 vapour pressure (mmHg): 1.48; ready biodegradability: readily biodegradable
59 | CCCCN1CCCC1 | 154 |  | ready biodegradability: readily biodegradable
60 | CC(C)COP(=O)(OCC(C)C)OCC(C)C | 264 |  | 
61 | COc1ccc(CC(=O)O)cc1 |  | 87 | 
62 | CCN1C(=O)c2ccccc2C1Nc1ccc(OCCN2CCCCC2)cc1 (centres undefined) |  | 106 | 
63 | CN(C)CCCCN(C)C | 168 |  | 
64 | CCCCCCCCCCC(Br)C(=O)O (centres undefined) |  | 32 | 
